The values that follow come from patent publication US7276524B2, “Pyridyl alkane acid amides as cytostatics and immunosuppressives” (Astellas Deutschland GmbH, priority 1996, dated 2007).

SMILES strings stand for the structures.

As a reminder, the melting point is the temperature, or range, at which the solid turns liquid. Compound `CCN(CCCCC1CCN(C(c2ccccc2)c2ccccc2)CC1)C(=O)CCc1cccnc1` [compound 68, N-[4-(1-diphenylmethyl-piperidin-4-yl)-butyl]-N-ethyl-3-(pyridin-3-yl) -propionamide] gave a melting point of 72 to 74 °C. The result for `O=C(COc1cccnc1)NCCCCC1CCN(C(c2ccccc2)c2ccccc2)CC1` [compound 84, N-[4-(1-diphenylmethyl-piperidin-4-yl)-butyl]-2-(pyridin-3-yloxy)-acetamide] reads 103 to 105 °C; that for `O=C(CCc1cccnc1)NCCCCCC1CCN(C(c2ccccc2)c2ccccc2)CC1` [compound 101, N-[5-(1-diphenylmethyl-piperidin-4-yl)-pentyl]-3-(pyridin-3-yl)-propionamide], 112 to 114 °C. Next, `O=C(CCc1cccnc1)NCCCCC1CCN(C2c3ccccc3COc3ccccc32)CC1` (centres unmarked) [compound 142, N-{4-[1-(6,11-dihydrodibenzo[b,e]oxepin-11-yl)-piperidin-4-yl]-butyl}-3-(pyridin-3-yl)-propionamide]: 110 to 112 °C. Next, `O=C(CCc1cccnc1)NCCCCC1CCN(C(=O)c2ccccc2)CC1` [compound 162, N-[4-(1-benzoylpiperidin-4-yl)-butyl]-3-(pyridin-3-yl)-propionamide]: 72 to 74 °C.
